What was measured:
HsPLK1 = target: T1, HsPLK1 (Homo sapiens, UniProt P53350); test: PLK1 kinase assay; format: biochemical; conditions: Table 4
T1 construct: purchased ProQinase
Description: . We therefore tested our compounds on two obvious candidates, HsCDK1 and HsPLK1 (Polo-like_kinase 1) both required for mitotic entry[50] (Table 4).
Values are IC50 expressed in µM and calculated from dose–response curves (each point from the curves was performed in duplicate). NR: not relevant. […]
Recombinant protein kinases were expressed and purified from E. coli (HsHaspin kinase domain aa470-798, HsCdk5/p25, RnDYRK1A kinase domain aa1-499, HsPIM1, MmCLK1) or baculovirus/Sf9 cells (HsCdk2/Cyclin A, HsCdk9/Cyclin T). Native SscCK1δ /ε and SscGSK3α/β were purified from pig brain whereas HsPlk1, HsCdk1 and HsAurora B were purchased from ProQinase and SignalChem respectively. Kinase assays were performed in specific buffers and substrates for each kinase tested in the presence of 15 µM [γ-33P] ATP (3,000 Ci/mmol, 10 mCi/ml; PerkinElmer) in a final volume of 30 µl as previously reported 51. After 30 min incubation at 30°C, the reaction mix was spotted onto GE healthcare P81 phosphocellulose paper using a FilterMate Harvester (PerkinElmer), and the filter was extensively washed with a 1% phosphoric acid solution. The wet filter-bound radioactivity was determined in the presence of 20 µl scintillation fluid (GE healthcare) with a TopCount® Scintillation and Luminescence Counter (PerkinElmer). IC50 values were calculated from dose-response curves

U-2 OS cells = test: Cell cycle analysis by flow cytometry (propidium iodide); conditions: 2.5 µM, 24 h, U-2 OS
Description: Figure 6. […] DNA content was measured by flow cytometry and representative profiles are shown. (B) quantification of the proportion of cells in each phase of the cell cycle from the experiment described in (A). Results are mean percentage (n = 3 independent experiments).
Cellular evaluation methods
All media were supplemented with 10% fetal calf serum (unless overwise specified) and 2 mM L-glutamine and cells were cultured
F68-pluronic acid. Cells were fixed for 2h in ice-cold ethanol, then washed twice in PBS containing 0.1% F68-pluronic acid, centrifuged at 200 g and resuspended in a PBS buffer containing 1% Triton, 100 µg/ml RNase A (Thermo Scientific) and 40 µg/ml propidium iodide (Life Technologies). DNA content was determined using a FACS Canto II (BD) and the data were analyzed using FCS Express Cytometry software (De Novo Software).
Twenty thousand events were collected in each run.

HsCdk2/Cyclin A = target: T2, HsCdk2/Cyclin A (Homo sapiens, UniProt P24941); test: CDK2 kinase assay; format: biochemical
T2 construct: made in house; host or cells: baculovirus/Sf9 cells
Description: (§1) Values are IC50 expressed in µM and calculated from dose–response curves (each point on the curves was performed in triplicate). Selectivity indexes (SI; in brackets) are calculated as follows: SI = IC50 kinase X/IC50 Haspin. ND: not determined. *IC50 values obtained using the ADP-Glo methodology (see Experimental section, Supplementary Material). […]
A, HsCdk9/Cyclin T). Native SscCK1δ /ε and SscGSK3α/β were purified from pig brain whereas HsPlk1, HsCdk1 and HsAurora B were purchased from ProQinase and SignalChem respectively. Kinase assays were performed in […]
mCi/ml; PerkinElmer) in a final volume of 30 µl as previously reported 51. After 30 min incubation at 30°C, the reaction mix was spotted onto GE healthcare P81 phosphocellulose paper using a FilterMate Harvester (PerkinElmer), and the filter was extensively washed with a 1% phosphoric acid solution. The wet filter-bound radioactivity was determined in the presence of 20 µl scintillation fluid (GE healthcare) with a TopCount® Scintillation and Luminescence Counter (PerkinElmer). IC50 values were calculated from dose-response curves […]
Kinase activities using the ADP-Glo methodology (ADP-Glo Kinase Assay; Promega) were assayed according to the assay described in Nguyen et al. 52 and Ibrahim et al. 53. […]

HCT116 = test: Cell viability, monolayer (2D), MTS assay; format: cell-based; conditions: Homo sapiens, HCT-116, 48 h
HsCdk9/Cyclin T = test: CDK9 kinase assay; format: biochemical, human; conditions: SI = IC50 kinase X/IC50 Haspin
Description: as §1
The reaction was carried out as described in general procedure A using 4 (0.150 g, 0.58 mmol, 1 equiv.), 2-aminopyrimidine-5-boronic acid (0.122 g, 0.88 mmol, 1.5 equiv.) and Cs2CO3 (0.575 g, 1.75 mmol, 3 equiv.). The crude mixture was purified by flash chromatography on silica gel (EtOAc) to afford 28 (0.115 g, 73 %) as a yellow […]
The reaction was carried out as described in general procedure A using 4 (0.100 g, 0.39 mmol, 1 equiv.), 1-naphthaleneboronic acid (0.083g, 0.47 mmol, 1.2 equiv.) and Cs2CO3 (0.381 g, 1.17 mmol, 3 equiv.). […]
Recombinant protein kinases were expressed and purified from E. coli (HsHaspin kinase domain aa470-798, HsCdk5/p25, RnDYRK1A kinase domain aa1-499, HsPIM1, MmCLK1) or baculovirus/Sf9 cells (HsCdk2/Cyclin A, HsCdk9/Cyclin T). […] The wet filter-bound radioactivity was determined in the presence of 20 µl scintillation fluid (GE healthcare) with a TopCount® Scintillation and Luminescence Counter (PerkinElmer). IC50 values were calculated from dose-response curves […]

T1 sequence (P53350 whole entry): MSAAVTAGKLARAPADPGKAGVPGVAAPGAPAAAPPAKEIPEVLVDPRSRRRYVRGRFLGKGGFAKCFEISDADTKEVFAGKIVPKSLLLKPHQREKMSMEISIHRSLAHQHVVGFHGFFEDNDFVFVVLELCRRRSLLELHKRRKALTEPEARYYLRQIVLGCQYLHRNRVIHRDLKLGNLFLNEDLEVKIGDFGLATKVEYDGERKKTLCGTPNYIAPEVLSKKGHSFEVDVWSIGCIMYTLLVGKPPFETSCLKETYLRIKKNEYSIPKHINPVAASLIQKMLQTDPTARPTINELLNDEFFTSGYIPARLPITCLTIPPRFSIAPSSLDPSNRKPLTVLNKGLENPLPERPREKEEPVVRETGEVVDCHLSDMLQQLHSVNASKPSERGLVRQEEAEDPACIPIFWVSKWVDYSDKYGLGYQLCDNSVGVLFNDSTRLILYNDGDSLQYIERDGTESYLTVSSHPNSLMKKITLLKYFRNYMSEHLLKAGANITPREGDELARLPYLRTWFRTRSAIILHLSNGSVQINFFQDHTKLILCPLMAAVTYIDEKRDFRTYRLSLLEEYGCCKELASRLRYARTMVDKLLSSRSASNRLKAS

SMILES: c1cc2[nH]ncc2cc1-c1cnc2ccc(OC[C@@H]3CNCCO3)nn12 [Compound 21]
- IC50 (HsPLK1): > 10 µM
- cells in G2/M phase (% of cell total population) (U-2 OS cells; DMSO control 12.8%): 21.4%
- cells in S phase (% of cell total population) (U-2 OS cells; DMSO control 51.9%): 32%
- selectivity for CDK2 vs Haspin (HsCdk2/Cyclin A; SI = IC50 kinase X/IC50 Haspin): 716 fold
- IC50 (HsCdk2/Cyclin A; read-out: IC50 CDK2): 4.3 µM
- EC50 (HCT116): > 10 µM
- selectivity for CDK9 vs Haspin (HsCdk9/Cyclin T): 28 fold
